# Laboratory results taken from US20050090402A1, “Use of defined copolymers as adjuvants and agents in the agrotechnical domain” (priority 2001, published 2005).
# Experiments:
# Assay type in all cases: in vivo
# Details in all cases: bentazone 0.125 kg/ha, no adjuvant, 100 = complete destruction, 0 = no damage
# [1] = test system: soybeans (Glycine max; GLXMA); assay: Herbicidal efficacy of bentazone tank mixes, greenhouse post-emergence, soybeans
# Procedure: (§1) The copolymers shown in Table 1 were applied by the tank mix method together with Basagran (480 g/l bentazone). The application rate per ha was 0.125 kg of bentazone and 2, 1.0 and 0.5 kg of a.i./ha copolymer or comparative surfactant Wettol LF 700 (alcohol alkoxylate). The herbicidal effect was assessed in a greenhouse experiment. The test plants used were soybeans (Glycine max; GLXMA), Chinese hemp (Abutilon theophrasti; ABUTH), white goosefoot (Chenopodium album; CHEAL) and ladysthumb (Polygonum persicaria; POLPE). These plants were either sown separately for each species or first grown separately as seedlings and transplanted into the experimental containers a few days before the treatment. The experimental containers used were plastic pots containing loamy sand and approximately 3.0% of humus as substrate. […] The application rate for the post-emergence treatment was 0.125 kg a.i./ha bentazone and 2.0, 1.0 or 0.5 kg a.i./ha copolymer or comparative surfactant.
# (§2) The test period extended over 2 to 4 weeks. During this time, the plant species were kept specifically at night-time temperatures above 14° C. and day-time temperatures between 20 and 31° C., tended, and their response to the individual treatments was evaluated.
# (§3) Evaluation was done using a scale from 0 to 100. […]
# [2] = test system: Chinese hemp (Abutilon theophrasti; ABUTH); assay: Herbicidal efficacy of bentazone tank mixes, greenhouse post-emergence, Chinese hemp
# Procedure: as §1, §2, §3
# [3] = test system: white goosefoot (Chenopodium album; CHEAL); assay: Herbicidal efficacy of bentazone tank mixes, greenhouse post-emergence, white goosefoot
# Procedure: as §1, §2, §3
# [4] = test system: ladysthumb (Polygonum persicaria; POLPE); assay: Herbicidal efficacy of bentazone tank mixes, greenhouse post-emergence, ladysthumb
# Procedure: as §1, §2, §3
smiles,measurement,setting,value
"CC(C)N1C(=O)c2ccccc2NS1(=O)=O [Bentazone, bentazone]",herbicidal effect GLXMA (scale 0 to 100),[1],0
same,herbicidal effect ABUTH (scale 0 to 100),[2],64
same,herbicidal effect CHEAL (scale 0 to 100),[3],9
same,herbicidal effect POLPE (scale 0 to 100),[4],86
